Data: US8415359B2, “Phenylpyrrole derivative” (Daiichi Sankyo Company, Limited, priority 2008, dated 2013)

molecular target: T1, human pancreatic GK (human glucokinase variant 1, GST-fused protein) (Homo sapiens, UniProt P35557); experiment: GK activity test (GK activation rate); type: biochemical; conditions: test compound 1 μM; glucose 5 mM; 30 min at room temperature; absorbance at 340 nm with test compound / without test compound
T1 construct: made in house; host or cells: Escherichia coli (such as BL21 or JM109)
T1 sequence (P35557 1-465): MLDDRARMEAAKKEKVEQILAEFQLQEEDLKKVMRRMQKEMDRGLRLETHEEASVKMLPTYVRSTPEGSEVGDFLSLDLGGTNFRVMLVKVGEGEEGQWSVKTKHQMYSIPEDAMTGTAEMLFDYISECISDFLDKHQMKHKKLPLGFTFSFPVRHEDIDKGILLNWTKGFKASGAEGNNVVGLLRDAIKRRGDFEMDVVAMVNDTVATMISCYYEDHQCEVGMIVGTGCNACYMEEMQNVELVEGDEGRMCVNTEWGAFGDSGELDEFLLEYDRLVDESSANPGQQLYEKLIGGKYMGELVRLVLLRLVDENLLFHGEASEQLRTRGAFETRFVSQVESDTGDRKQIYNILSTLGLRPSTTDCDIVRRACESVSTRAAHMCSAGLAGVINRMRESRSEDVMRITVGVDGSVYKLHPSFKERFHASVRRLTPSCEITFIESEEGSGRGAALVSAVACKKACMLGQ
Procedure: cDNA encoding human pancreatic GK polypeptide (GenBank Accession No. NM_000162, human glucokinase variant 1) was cloned from a human cDNA library by polymerase chain reaction (PCR), and introduced into a glutathione S-transferase (GST)-fused protein expression vector (GEX4T, GE Healthcare Bioscience). The vector was introduced into Escherichia coli (such as BL21 or JM109, Invitrogen), and the transformed E. coli was cultured overnight at 37° C. followed by recovery of the cells. After freezing and thawing the recovered cells, the cells were suspended in phosphate buffer containing Triton-X at a final concentration of 1% followed by disrupting the cells with an ultrasonic homogenizer. The supernatant obtained by low-speed centrifugation treatment of the homogenate (10,000×g, 30 minutes) was further subjected to high-speed centrifugation (100,000×g, 10 minutes) followed by recovering the supernatant and purifying the fused protein using a GST fused protein purification system (Bulk GST Purification Module, GE Healthcare Bioscience). The GK fused protein was divided into smaller aliquots and stored at −80° C.
GK activity was measured using the GK purified in (1) above. More specifically, an enzyme solution was prepared by adding the purified GK of (1) above and glucose-6-phosphate dehydrogenase (Sigma) to solution 1 of a glucose assay kit (D-Glucose UV Method, Roche Diagnostics). The enzyme solution, a test compound diluent and glucose (final concentration: 5 mM) were mixed in a 96-well ELISA plate, and allowed to react for 30 minutes at room temperature. Following completion of the reaction, absorbance at a wavelength of 340 nm was measured using SpectraMax Plus (Molecular Probe). Furthermore, unreacted (when glucose was not added) absorbance was used for the background.
GK activation rates were indicated with values represented by the following numerical formula: (absorbance after reacting for 30 minutes when test compound added)/(absorbance after reacting for 30 minutes when test compound not added).

| SMILES | GK Activation Rate |
| --- | --- |
| COC[C@H](C)Oc1cc(Oc2ccc(S(C)(=O)=O)nc2)cc(-c2ccc(C3=N[C@H](C)[C@H](CO)O3)[nH]2)c1 [Example 89, {(4R,5R)-2-[5-(3-[(1S)-2-Methoxy-1-methylethoxy]-5-{[6-(methylsulfonyl)pyridin-3-yl]oxy}phenyl)-1H-pyrrol-2-yl]-4-methyl-4,5-dihydro-1,3-oxazol-5-yl}methanol] | 2.3 |
| Cc1nnc(-c2ccc(-c3cc(Oc4ccc(C(=O)N5CCC5)cc4F)cc(O[C@@H](C)CO)c3)[nH]2)o1 [Example 67, (2S)-2-{3-[4-(Azetidin-1-ylcarbonyl)-2-fluorophenoxy]-5-[5-(5-methyl-1,3,4-oxadiazol-2-yl)-1H-pyrrol-2-yl]phenoxy}propan-1-ol] | 1.7 |
| Cc1nnc(-c2ccc(-c3cc(Oc4ccc(S(C)(=O)=O)nc4)cc(O[C@@H](C)CO)c3)[nH]2)o1 [Example 81, (2S)-2-(3-[5-(5-Methyl-1,3,4-oxadiazol-2-yl)-1H-pyrrol-2-yl]-5-{[6-(methylsulfonyl)pyridin-3-yl]oxy}phenoxy)propan-1-ol] | 2.2 |
| C[C@H]1CN=C(c2ccc(-c3cc(Oc4ccc(S(C)(=O)=O)nc4)cc(O[C@@H](C)CO)c3)[nH]2)O1 [Example 77, (2S)-2-(3-{5-[(5S)-5-Methyl-4,5-dihydro-1,3-oxazol-2-yl]-1H-pyrrol-2-yl}-5-{[6-(methylsulfonyl)pyridin-3-yl]oxy}phenoxy)propan-1-ol] | 2.6 |
| COC[C@H](C)Oc1cc(Oc2ccc(S(C)(=O)=O)cc2)cc(-c2ccc(-c3ncc(C)s3)[nH]2)c1 [Example 3, 2-(5-{3-[(1S)-2-Methoxy-1-methylethoxy]-5-[4-(methylsulfonyl)phenoxy]phenyl}-1H-pyrrol-2-yl)-5-methyl-1,3-thiazole] | 1.9 |
| COC[C@H](C)Oc1cc(Oc2ncc(C(=O)N3CCC3)cc2Cl)cc(-c2ccc(C3=NC[C@H](C)O3)[nH]2)c1 [Example 74, 5-(Azetidin-1-ylcarbonyl)-3-chloro-2-(3-[(1S)-2-methoxy-1-methylethoxy]-5-{5-[(5S)-5-methyl-4,5-dihydro-1,3-oxazol-2-yl]-1H-pyrrol-2-yl}phenoxy)pyridine] | 2.0 |
| COC[C@H](C)Oc1cc(Oc2ncc(C(=O)N3CCC3)cc2Cl)cc(-c2ccc(C3=NCCO3)[nH]2)c1 [Example 73, 5-(Azetidin-1-ylcarbonyl)-3-chloro-2-{3-[5-(4,5-dihydro-1,3-oxazol-2-yl)-1,4-pyrrol-2-yl]-5-[(1S)-2-methoxy-1-methylethoxy]phenoxyl}pyridine] | 2.0 |
| COC[C@H](C)Oc1cc(Oc2ccc(S(C)(=O)=O)cc2)cc(-c2ccc(C3=NC[C@H](C)O3)[nH]2)c1 [Example 31, (5S)-2-(5-{3-[(1S)-2-Methoxy-1-methylethoxy]-5-[4-(methylsulfonyl)phenoxy]phenyl}-1H-pyrrol-2-yl)-5-methyl-4,5-dihydro-1,3-oxazole] | 2.0 |
| C[C@@H](CO)Oc1cc(Oc2ccc(S(C)(=O)=O)cc2)cc(-c2ccc(-c3nccs3)[nH]2)c1 [Example 2, (2S)-2-{3-[4-(Methylsulfonyl)phenoxy]-5-[5-(1,3-thiazol-2-yl)-1H-pyrrol-2-yl]phenoxy}propan-1-ol] | 1.9 |
| COC[C@H](C)Oc1cc(Oc2ccc(C(=O)N3CCCC3)cc2F)cc(-c2ccc(-c3nccs3)[nH]2)c1 [Example 47, 2-(5-{3-[2-Fluoro-4-(pyrrolidin-1-ylcarbonyl)phenoxy]-5-[(1S)-2-methoxy-1-methylethoxy]phenyl}-1H-pyrrol-2-yl)-1,3-thiazole] | 2.0 |
| COC[C@H](C)Oc1cc(Oc2ccc(S(C)(=O)=O)cc2)cc(-c2ccc(C3=NCCS3)[nH]2)c1 [Example 25, 2-(5-{3-[(1S)-2-Methoxy-1-methylethoxy]-5-[4-(methylsulfonyl)phenoxy]phenyl}-1H-pyrrol-2-yl)-4,5-dihydro-1,3-thiazole] | 2.0 |
| COC[C@H](C)Oc1cc(Oc2ccc(S(C)(=O)=O)cc2)cc(-c2ccc(-c3nccs3)[nH]2)c1 [Example 1, 2-(5-{3-[(1S)-2-Methoxy-1-methylethoxy]-5-[4-(methylsulfonyl)phenoxy]phenyl}-1H-pyrrol-2-yl)-1,3-thiazole] | 2.0 |
| COC[C@H](C)Oc1cc(Oc2ccc(S(C)(=O)=O)nc2)cc(-c2ccc(C3=NC[C@H](C)O3)[nH]2)c1 [Example 76, 5-(3-[(1S)-2-Methoxy-1-methylethoxy]-5-{5-[(5S)-5-methyl-4,5-dihydro-1,3-oxazol-2-yl]-1,4-pyrrol-2-yl}phenoxy)-2-(methylsulfonyl)pyridine] | 3.0 |

Further lines, results first:

| GK Activation Rate | SMILES |
| --- | --- |
| 2.1 | COC[C@H](C)Oc1cc(Oc2cnc(S(C)(=O)=O)cn2)cc(-c2ccc(C3=NC(O)[C@H](C)O3)[nH]2)c1 (stereo partly drawn) [Example 103, (5S)-2-[5-(3-[(1S)-2-Methoxy-1-methylethoxy]-5-{[5-(methylsulfonyl)pyrazin-2-yl]oxy}phenyl)-1H-pyrrol-2-yl]-5-methyl-4,5-dihydro-1,3-oxazol-4-ol] |
| 1.9 | C[C@H]1CN=C(c2ccc(-c3cc(Oc4cnc(S(C)(=O)=O)cn4)cc(O[C@@H](C)CO)c3)[nH]2)O1 [Example 100, (2S)-2-(3-{5-[(5S)-5-Methyl-4,5-dihydro-1,3-oxazol-2-yl]-1H-pyrrol-2-yl}-5-{[5-(methylsulfonyl)pyrazin-2-yl]oxy}phenoxy)propan-1-ol] |
| 2.5 | COC[C@H](C)Oc1cc(Oc2ccc(S(C)(=O)=O)nc2)cc(-c2ccc(C3=N[C@H]([C@@H](C)O)CO3)[nH]2)c1 [Example 95, (1R)-1-{(4S)-2-[5-(3-[(1S)-2-Methoxy-1-methylethoxy]-5-{[6-(methylsulfonyl)pyridin-3-yl]oxy}phenyl)-1H-pyrrol-2-yl]-4,5-dihydro-1,3-oxazol-4-yl}ethanol] |
| 2.0 | CC[C@@H]1COC(c2ccc(-c3cc(Oc4cnc(S(C)(=O)=O)cn4)cc(O[C@@H](C)CO)c3)[nH]2)=N1 [Example 108, (2S)-2-(3-{5-[(4R)-4-Ethyl-4,5-dihydro-1,3-oxazol-2-yl]-1H-pyrrol-2-yl}-5-{[5-(methylsulfonyl)pyrazin-2-yl]oxy}phenoxy)propan-1-ol] |
| 1.9 | COC[C@H](C)Oc1cc(Oc2cnc(S(C)(=O)=O)cn2)cc(-c2ccc(C3=NC[C@H](CO)O3)[nH]2)c1 [Example 101, {(5R)-2-[5-(3-[(1S)-2-Methoxy-1-methylethoxy]-5-{[5-(methylsulfonyl)pyrazin-2-yl]oxy}phenyl)-1H-pyrrol-2-yl]-4,5-dihydro-1,3-oxazol-5-yl}methanol] |
| 2.4 | COC[C@H](C)Oc1cc(Oc2ccc(S(C)(=O)=O)nc2)cc(-c2ccc(C3=N[C@H]([C@H](C)O)CO3)[nH]2)c1 [Example 93, (1S)-1-{(4S)-2-[5-(3-[(1S)-2-Methoxy-1-methylethoxy]-5-{[6-(methylsulfonyl)pyridin-3-yl]oxy}phenyl)-1H-pyrrol-2-yl]-4,5-dihydro-1,3-oxazol-4-yl}ethanol] |
| 2.2 | COC[C@H](C)Oc1cc(Oc2cnc(S(C)(=O)=O)cn2)cc(-c2ccc(C3=N[C@H]([C@@H](C)O)CO3)[nH]2)c1 [Example 114, (1R)-1-{(4S)-2-{[5-(3-[(2S)-1-Methoxypropan-2-yl]oxy}-5-{[5-(methylsulfonyl)pyrazin-2-yl]oxy}phenyl)-1H-pyrrol-2-yl]-4,5-dihydro-1,3-oxazol-4-yl}ethanol] |
